According to patent publication US20220160658A1, “TESOFENSINE FOR REDUCTION OF BODY WEIGHT IN PRADER-WILLI PATIENTS” (Saniona A/S, priority 2019, published 2022):
Several values for one entry are separate records, joined by “and”; a condition that tells them apart may be missing. Identical values can stand only once.

Key:
[1] = in vivo; cited from earlier work
[2] = Phase 2a trial in adolescent PWS patients: body weight and BMI, random coefficients analysis; type: in vivo, human
Procedure: Arm 1) tesofensine 0.125 mg+metoprolol 25 mg administered once a day, in the morning with a meal-first, an initial titration dose of tesofensine 0.0625 mg+metoprolol 25 mg will be given for the first 4 weeks, in the morning with a meal. Following a favorable review of all safety data for each subject by the investigator, tesofensine 0.125 mg+metoprolol 25 mg will be given for the final 9 weeks (the above proposed dosing plan can be adjusted by the DSMB, if needed)
(§1) This study included a double blind (DB) part (3 months) and two Open Label Extensions (OLE), each 3 months. Adolescents (12 to 17 years of age) received: tesofensine 0.125 mg daily (0.25 mg every second day)+metoprolol succinate 25 mg. Example 4 relates to Example 2.
(§2) The initial double blind (DB) phase of this study utilized a dose of tesofensine of 0.125 mg daily. In the first 3-month Open Label Extension (OLE1), a dose of 0.125 mg tesofensine was maintained. In the second OLE (OLE2), the tesofensine dose, if judged safe by the principle investigator (PI), was increased to 0.25 mg daily.
In the random coefficients analysis, each subject was considered as having their own profile of data, i.e. their own set of weight change/hyperphagia values and corresponding pk values. The analysis was essentially conducted by fitting a regression line to each subject individually:
where j denotes subjects, j=1 to m, and i denotes the measurement with subject j, i=1 to nj. The slope βj and intercept αj estimate for each subject j=1 to m, along with their standard errors, were then obtained. In a final step, the βj and αj values were averaged across the m subjects to give the overall mean regression slope and mean intercept, βj and αj, which gives the correlation line, as well as the associated confidence interval.

[3] = Phase 2a trial in adult PWS patients: tesofensine plasma concentration; type: in vivo, human; conditions: for Mean trough plasma concentration of tesofensine: TM002 study, 0.50 mg tesofensine + 50 mg metoprolol daily
Procedure: This exploratory Phase 2a trial comprised in of a total of nine adult patients with Prader-Willi syndrome (PWS) of which six patients received co-administration of tesofensine (0.50 mg)/metoprolol (50 mg) (A, active treatment—Tesomet) and three patients received placebo (P). The initial plan was to complete 10-20 adult subjects with PWS. However, ultimately nine patients were randomized as more subjects were not available at the two participating sites.
The main objective of this study was to examine the effect of co-administration of tesofensine/metoprolol on body weight in subjects with PWS. Further objectives were: • To establish a pharmacokinetic profile of tesofensine and metoprolol in subjects with PWS. • To examine the effect of co-administration of tesofensine/metoprolol on glycaemic control and lipid profile in subjects with PWS • To examine the effect of co-administration of tesofensine/metoprolol on HR and BP in subjects with PWS • To examine the effects of co-administration of tesofensine/metoprolol on body composition in subjects with PWS • To evaluate overall safety and tolerability of co-administration of the tesofensine/metoprolol in subjects with PWS
Arm 1) tesofensine 0.50 mg+metoprolol 50 mg administered once a day, in the morning with a meal
The study included two arms: Tesomet 0.5/50 (combination of 0.50 mg tesofensine and 50 mg of metoprolol ER) or placebo tablets matching tesofensine+metoprolol succinate, each administered once daily in the morning with a meal.
The primary endpoint was change in body weight following 91 days of treatment with either tesofensine+metoprolol or placebo. Patients were weighed throughout the study period to track changes in body weight. Secondary endpoints included change in hyperphagia-related behavior, pharmacokinetic profile, effects of co-administration of tesofensine/metoprolol on HR, BP, glycemic control, lipid profile and body composition, and safety and tolerability.

[4] = Phase 2a trial in adolescent PWS patients: tesofensine plasma levels; type: in vivo, human; conditions: for concentration at 3 months: human, plasma, oral
Procedure: as §1, §2

[5] = cited from earlier work
[6] = cited from earlier work; remark: listed apart in the source
[7] = tested on: rat model of diet-induced obesity (DIO); conditions: DIO rats; cited from earlier work
[8] = Phase 2a trial in adolescent PWS patients: hyperphagia score; type: in vivo, human
Procedure: as §1, §2

[9] = 0.125 mg tesofensine daily (DB, OLE1)

SMILES: COCCc1ccc(OCC(O)CNC(C)C)cc1 (stereo not drawn) [Metoprolol, 1-(Isopropylamino)-3-[4-(2-methoxyethyl)-phenoxy]-propan-2-ol, reference compound]
- half-life [1]: 3 to 4 h

SMILES: CCOC[C@@H]1[C@@H](c2ccc(Cl)c(Cl)c2)C[C@@H]2CC[C@H]1N2C [Tesofensine, (1R,2R,3S,5S)-3-(3,4-dichlorophenyl)-2-(ethoxymethyl)-8-methyl-8-azabicyclo[3.2.1]octane]
- weight change compared to placebo ([2]; adolescent PWS, DB phase, 0.125 mg tesofensine dose): No difference compared to placebo
- decrease in weight ([2]; adolescent PWS, at 10 ng/mL tesofensine plasma level, from the correlation analysis): around 2%
- tesofensine plasma level that counteracts the baseline weight gain of around 3% ([2]; adolescent PWS, random coefficients analysis): around 6 ng/mL
- Slope (SE), monthly BMI change versus tesofensine plasma level ([2]; random coefficients analysis, N=8, p=0.0031): −0.478 (0.1081)
- Slope (SE), monthly body weight change versus tesofensine plasma level ([2]; random coefficients analysis, N=8, p=0.0046): −0.460 (0.1120)
- Mean trough plasma concentration of tesofensine ([3]; V5 (day 28), n = 6): 18 ± 9 ng/mL
- Mean trough plasma concentration of tesofensine ([3]; V9 (day 56), n = 5): 21 ± 8 ng/mL
- Mean trough plasma concentration of tesofensine ([3]; V14 (day 91), n = 2): 23 ± 1 ng/mL
- plasma levels of tesofensine ([3]; adult PWS, 0.50 mg tesofensine and 50 mg metoprolol): 20 to 40 ng/mL
- plasma concentration in individual patients ([3]; adult PWS, 0.5 mg tesofensine, two patients): 34.1 ng/mL and 34.2 ng/mL
- mean trough plasma concentration ([3]; adult PWS, dosing of 0.5 mg tesofensine, whole study): ~20 ng/mL
- plasma levels of tesofensine [4, 9]: 3 to 5 ng/mL
- concentration at 3 months [4, 9]: 3 to 5 ng/mL
- concentration at 3 months ([4]; 0.25 mg tesofensine daily (OLE2)): 7 to 9 ng/mL
- serum half-life [1]: nine
- waist circumference and sagittal diameter ([5]; Astrup et al., 2008): significantly decreases
- weight loss ([5]; obese patients, long-term treatment, corrected for placebo and diet effects): about 10%
- average tesofensine trough plasma concentration ([6]; TIPO-1, dose of 0.5 mg Tesofensine): 10 ng/mL
- efficacious target plasma levels ([6]; previous studies in obese individuals at the same dosages): ~10 ng/mL and around 10 ng/mL
- body weight [7]: robust and sustained weight loss
- hyperphagia scores compared to placebo ([8]; DB part and OLE1, 0.125 mg tesofensine daily): did not differ from placebo
- hyperphagia compared to placebo ([8]; DB phase, 0.125 mg tesofensine dose): No difference compared to placebo
- hyperphagia scores ([8]; OLE2, 0.25 mg tesofensine): dropped to single digit numerical values
